3 compounds from patent US20070087330A1, “Viral deconstruction through capsid assembly in vitro” (priority 2002, published 2007) can be followed below.

In experiment [1] the test system is HBV core polypeptides / HBV capsids. In kind it is biochemical.
Experimental: Following translation of HBV core transcript for 30 min, the translation product was diluted in 0.01% Nil(kol buffer and centrifuged on a 10-50% sucrose gradient. The supernatant was removed and the pellet was resuspended in buffer and divided into equal aliquots. To one aliquots was added apyrase (A, top) while the control was incubated in buffe alone (A, bottom). Incubations were done at 25° C. for 90 min. Reaction mixtures were then centrifuged on standard 10-50% sucrose gradients. Fractions were analyzed by SDS-PAGE and autoradiography. In a separate experiment (B) the pellet was isolated and resuspended in identical fashion. To one aliquot was added wheat germ extract as well as unlabeled energy mix. (B, top); to the second aliquot was added wheat germ extract and apyrase (B, botton).
To address this, pellet material was isolated by fractionating the products of a 30-min translation of HBV core on a sucrose gradient and resuspending the pellet in buffer. The resuspended pellet was divided into equal aliquots and treated either with aphyase or with buffer for 90 min at 24° C.
Treatment of the isolated pellet with apyrase and wheat germ extract (FIG. 23B, bottom).
Experiment [2] has as its system HIV capsid assembly (Gag Pr55). The experiment in a line: Cell-free HIV capsid assembly in wheat germ extract, analysed by velocity sedimentation. It counts as biochemical. On the procedure:
Translation of the transcription products was carried out in wheat germ extract containing ^35S methionine (ICN Pharmaceuticals, Costa Mesa, Calif.). Wheat germ was obtained from General Mills. Wheat germ extract was prepared as described by Erickson and Blobel (1983) supra with indicated modifications. Three grams of wheat germ were placed in a mortar and ground in 10 ml homogenization buffer (100 mM K-acetate, 1 mM Mg-acetate, 2 mM CaC12, 40 mM HEPES buffer, pH 7.5 (Sigma Chemicals, St. Louis, Mo.), 4 mM dithiothreitol) to a thick paste. The homogenate was scraped into a chilled centrifuge tube and centrifuged at 4° C. for 10 min at 23,000×g. The resulting supernatant was centrifuged again under these conditions to provide an S23 wheat germ extract. Improved assembly was obtained when the S23 wheat germ extract was further subjected to ultracentrifugation at 50,000 rpm in the TLA 100 rotor (100,000×g) (Beckman Instruments, Palo Alto, Calif.) for 15 min at 4° C. and the supernatant used for in vitro translation. […] This supernatant is referred to herein as a “high speed wheat germ extract supernatant”. Reactions were performed as previously described (Lingappa, J. R., et al., J. Cell. Biol. (1984) 125:99-111), except for modifications noted below.
A 25 μl wheat germ transcription/translation reaction mixture contained: 5 μl Gag transcript, 5 μl ^35—S Energy Mix 5× stock (Sigma Chemical Co., St. Louis, Mo.), 2.5 μl Compensating Buffer (Sigma Chemical Co.), 1.0 μl 40 mM MgAcetate (Sigma Chemical Co.), 2.0 μl 125 μM Myristoyl CoA (made up in 20 mM Tris Acetate, pH 7.6; Sigma Chemical Co.), 3.75 μl 20 mM Tris Acetate buffer, […] (U.S. Biochemicals; Cleveland, Ohio), 0.25 μl creatine kinase (4 mg/ml stock in 50% glycerol, 10 mM Tris Acetate; Boehringer Mannheim, Indianapolis, Ind.), 0.25 μl bovine tRNA (10 mg/ml stock; Sigma Chemical Co.), and 0.25 μl RNAse Inhibitor (20 units/50; Promega). […]
The purpose of this experiment was to use the cell-free system for detecting HIV assembly intermediates that would be otherwise difficult or impossible to detect. A continuously labeled cell-free reaction was analyzed by velocity sedimentation. […] Upon completion of the cell-free reaction, the products were diluted into 1% NP40 sample buffer on ice, and were analyzed by velocity sedimentation on 13 ml 15-60% sucrose gradients. Fractions were collected from the top of each gradient, and the amount of radiolabeled Pr55 protein in each fraction was determined and expressed as percent of total Pr55 protein present in the reaction. The calculated positions of 10S, 80S, 150S, 500S, and 750S complexes are indicated with markers above the figures (see FIG. 3A). […]

Chain of HBV core polypeptides / HBV capsids (P03146 whole entry): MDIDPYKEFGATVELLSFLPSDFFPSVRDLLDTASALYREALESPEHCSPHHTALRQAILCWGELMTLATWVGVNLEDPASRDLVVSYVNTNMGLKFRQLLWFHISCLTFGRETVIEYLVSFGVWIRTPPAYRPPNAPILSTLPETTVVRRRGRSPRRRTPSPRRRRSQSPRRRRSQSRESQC

Take `O=C(O)CN(CCN(CC(=O)O)CC(=O)O)CC(=O)O` [EDTA]: the “Effect on relative distribution of labeled core polypeptides in top, middle and pellet regions” value in experiment [1] (10 mM, translation products treated) is listed as “had no effect”.

Turning to apyrase, in experiment [2] (radiolabeled Pr55 in 10S complex A, apyrase added post-translationally, detergent cotranslationally), the “A (material in fractions of assembly intermediate complex A)” value amounted to 2851. Also, the “B/C (material in fractions of assembly intermediate complexes B and C)” value in experiment [2] (radiolabeled Pr55 in 80S/150S complexes B and C, apyrase added post-translationally, detergent cotranslationally) is given as 5999. Also, the “Final Capsid (material in fractions of the completed capsid)” value in experiment [2] (radiolabeled Pr55 in 750S completed capsid position, apyrase added post-translationally, detergent cotranslationally) amounted to 133. In addition, the “Effect of treatment on assembly intermediates” value in experiment [2] (velocity sedimentation, compared with the untreated reaction) was “accumulation of additional material in complexes B and C”. Also, the “Effect of treating the isolated pellet material” value in experiment [1] (pellet of a 30-min translation, 90 min at 24° C.) is recorded as “release of completed capsids from the pellet”.

As to `CC[C@H]1CN2CCc3cc(OC)c(OC)cc3[C@@H]2C[C@@H]1C[C@H]1NCCc2cc(OC)c(OC)cc21` [emetine], the “Effect on results of treating the isolated pellet with energy substrates or apyrase” value in experiment [1] (protein synthesis inhibitor added) is “did not affect”.
